# Biological target: human A2A receptor (A2AR) (Homo sapiens, UniProt P29274)
# Test: Luciferase reporter assay (HEK293-A2AR-luc2p/CRE/Hygro cells, 3 nM CGS21680)
# Format: cell-based
# Details: 3 nM CGS21680, 5 h incubation
# Experimental: HEK293 cells were maintained in Dulbecco's modified Eagle's medium (DMEM, Gibco) supplemented with 10% fetal bovine serum (FBS, Thermo Scientific), 100 units/mL penicillin (Gibco), and 0.1 mg/mL streptomycin (Gibco) in a humidified 37° C. environment with 5% C02. Plasmid encoding wild-type human A2A receptor (A2AR) (in pcDNA3.1) was synthesized by Genscript (Nanjing, China). Transfection of the plasmids was performed in 6-well plates with 4×10^5 cells using Lipofectamin 2000 (ThermoFisher Scientific) according to the instruction of the manufacturer. Cell clones that stably express A2AR were established and maintained in the same complete medium as the HEK293 cells in addition of G-418 (Gibico). Expression level of A2AR in each single cell clone was determined using immunoblotting and FACS method. HEK293-A2AR stable cells were then transfected with pGL4.29[luc2P/CRE/Hygro] (Promega) luciferase reporter plasmid for establishing the HEK293-A2AR-luc2p/CRE/Hygro stable cell line.
# HEK293-A2AR-luc2p/CRE/Hygro cells were seeded at a density of 5,000 cells/well in DMEM with 1% FBS and 1 U/mL adenosine deaminase (ADA) (Sigma). After 18 h, the cells were treated with 3 nM CGS21680 plus a series dilution of A2AR antagonist, the compounds disclosed herein at the concentration of 0.1˜10000 nM, prepared in DMEM with 1% FBS. After 5 h incubation, the luciferase activity in cells were measured using the Bright-Glo Luciferase Assay System (Promega) according to manufacturer's instructions. The luminescence signal was measured using a PHERAstar FS plate reader (BMG Labtech). […] Maximal luminescence intensity was determined in the presence of 3 nM CGS21680 and was set as 100%. The IC50 value was calculated from a dose dependent inhibition curve across the range of compound concentrations.
# Chain of human A2A receptor (A2AR) (P29274 whole entry): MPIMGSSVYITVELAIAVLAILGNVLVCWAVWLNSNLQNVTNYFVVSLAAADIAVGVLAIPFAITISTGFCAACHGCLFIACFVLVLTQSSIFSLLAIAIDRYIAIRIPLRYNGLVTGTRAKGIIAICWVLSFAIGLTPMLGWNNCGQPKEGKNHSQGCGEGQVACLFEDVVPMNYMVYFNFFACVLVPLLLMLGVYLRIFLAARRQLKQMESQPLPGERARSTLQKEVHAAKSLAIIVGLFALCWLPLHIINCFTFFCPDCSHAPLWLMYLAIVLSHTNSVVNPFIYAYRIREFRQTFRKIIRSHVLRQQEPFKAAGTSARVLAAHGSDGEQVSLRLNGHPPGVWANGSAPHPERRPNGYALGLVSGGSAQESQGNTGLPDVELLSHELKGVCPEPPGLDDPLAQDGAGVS
row,SMILES,IC50
1,"CC(C(=O)N1CCN(c2ccc(OCCN)cc2)CC1)n1ncc2c1nc(N)n1nc(-c3ccco3)nc21 (centres unmarked) [Compound A7, 2-(5-amino-2-(furan-2-yl)-7H-pyrazolo[4,3-e][1,2,4]triazolo[1,5-c]pyrimidin-7-yl)-1-(4-(4-(2-aminoethoxy)phenyl)piperazin-1-yl)propan-1-one]",23.1 nM
2,"CCC(C(=O)N1CCN(c2ccc(OCCOCCOC)cc2)CC1)n1ncc2c1nc(N)n1nc(-c3ccco3)nc21 (centres unmarked) [Compound A8, 2-(5-amino-2-(furan-2-yl)-7H-pyrazolo[4,3-e][1,2,4]triazolo[1,5-c]pyrimidin-7-yl)-1-(4-(4-(2-(2-methoxyethoxy)ethoxy)phenyl)piperazin-1-yl)butan-1-one]",41.5 nM
3,"COCCOCCOc1ccc(N2CCN(C(=O)C(C)n3ncc4c3nc(N)n3nc(-c5ccco5)nc43)CC2)cc1 (centres unmarked) [Compound A9, 2-(5-amino-2-(furan-2-yl)-7H-pyrazolo[4,3-e][1,2,4]triazolo[1,5-c]pyrimidin-7-yl)-1-(4-(4-(2-(2-methoxyethoxy)ethoxy)phenyl)piperazin-1-yl)propan-1-one]",59.1 nM
4,"COCCOCCOc1ccc(N2CCN(C(=O)C(C(C)C)n3ncc4c3nc(N)n3nc(-c5ccco5)nc43)CC2)cc1 (centres unmarked) [Compound A12, 2-(5-amino-2-(furan-2-yl)-7H-pyrazolo[4,3-e][1,2,4]triazolo[1,5-c]pyrimidin-7-yl)-1-(4-(4-(2-(2-methoxyethoxy)ethoxy)phenyl)piperazin-1-yl)-3-methylbutan-1-one]",113 nM
5,"COCCOCCOc1ccc(N2CCN(C(=O)C(c3ccccc3)n3ncc4c3nc(N)n3nc(-c5ccco5)nc43)CC2)cc1 (centres unmarked) [Compound A14, 2-(5-amino-2-(furan-2-yl)-7H-pyrazolo[4,3-e][1,2,4]triazolo[1,5-c]pyrimidin-7-yl)-1-(4-(4-(2-(2-methoxyethoxy)ethoxy)phenyl)piperazin-1-yl)-2-phenylethan-1-one]",12.7 nM
6,"COCCOc1ccc(N2CCN(C(=O)C(C3CC3)n3ncc4c3nc(N)n3nc(-c5ccco5)nc43)CC2)cc1 (centres unmarked) [Compound A15, 2-(5-amino-2-(furan-2-yl)-7H-pyrazolo[4,3-e][1,2,4]triazolo[1,5-c]pyrimidin-7-yl)-2-cyclopropyl-1-(4-(4-(2-methoxyethoxy)phenyl)piperazin-1-yl)ethan-1-one]",8.4 nM
7,"CC(C(=O)N1CCN(c2ccc(OCCN(C)C)cc2)CC1)n1ncc2c1nc(N)n1nc(-c3ccco3)nc21 (centres unmarked) [Compound A18, 2-(5-amino-2-(furan-2-yl)-7H-pyrazolo[4,3-e][1,2,4]triazolo[1,5-c]pyrimidin-7-yl)-1-(4-(4-(2-(dimethylamino)ethoxy)phenyl)piperazin-1-yl)propan-1-one]",30.6 nM
8,"COCCOCCOc1ccc(N2CCN(C(=O)C(C3CC3)n3ncc4c3nc(N)n3nc(-c5ccco5)nc43)CC2)cc1 (centres unmarked) [Compound A21, 2-(5-amino-2-(furan-2-yl)-7H-pyrazolo[4,3-e][1,2,4]triazolo[1,5-c]pyrimidin-7-yl)-2-cyclopropyl-1-(4-(4-(2-(2-methoxyethoxy)ethoxy)phenyl)piperazin-1-yl)ethan-1-one]",21.6 nM
9,"COCCOc1ccc(N2CCN(C(=O)C(COC)n3ncc4c3nc(N)n3nc(-c5ccco5)nc43)CC2)cc1 (centres unmarked) [Compound A26, 2-(5-amino-2-(furan-2-yl)-7H-pyrazolo[4,3-e][1,2,4]triazolo[1,5-c]pyrimidin-7-yl)-3-methoxy-1-(4-(4-(2-methoxyethoxy)phenyl)piperazin-1-yl)propan-1-one]",43.8 nM
10,"COCCOCCOc1ccc(N2CCN(C(=O)C(COC)n3ncc4c3nc(N)n3nc(-c5ccco5)nc43)CC2)cc1 (centres unmarked) [Compound A27, 2-(5-amino-2-(furan-2-yl)-7H-pyrazolo[4,3-e][1,2,4]triazolo[1,5-c]pyrimidin-7-yl)-3-methoxy-1-(4-(4-(2-(2-methoxyethoxy)ethoxy)phenyl)piperazin-1-yl)propan-1-one]",39.4 nM
11,"COCCOc1ccc(N2CCN(C(=O)C(c3ccc(OC)cc3)n3ncc4c3nc(N)n3nc(-c5ccco5)nc43)CC2)cc1 (centres unmarked) [Compound A29, 2-(5-amino-2-(furan-2-yl)-7H-pyrazolo[4,3-e][1,2,4]triazolo[1,5-c]pyrimidin-7-yl)-1-(4-(4-(2-methoxyethoxy)phenyl)piperazin-1-yl)-2-(4-methoxyphenyl)ethan-1-one]",20.5 nM

# Stronger by IC50, values ahead:
row,IC50,SMILES
1,7.6 nM,"COCCOc1ccc(N2CCN(C(=O)C(c3ccc(F)cc3)n3ncc4c3nc(N)n3nc(-c5ccco5)nc43)CC2)cc1 (centres unmarked) [Compound A28, 2-(5-amino-2-(furan-2-yl)-7H-pyrazolo[4,3-e][1,2,4]triazolo[1,5-c]pyrimidin-7-yl)-2-(4-fluorophenyl)-1-(4-(4-(2-methoxyethoxy)phenyl)piperazin-1-yl)ethan-1-one]"
2,6.9 nM,"CCCCC(C(=O)N1CCN(c2ccc(OCCOCCOC)cc2)CC1)n1ncc2c1nc(N)n1nc(-c3ccco3)nc21 (centres unmarked) [Compound A11, 2-(5-amino-2-(furan-2-yl)-7H-pyrazolo[4,3-e][1,2,4]triazolo[1,5-c]pyrimidin-7-yl)-1-(4-(4-(2-(2-methoxyethoxy)ethoxy)phenyl)piperazin-1-yl)hexan-1-one]"
3,6.5 nM,"COCCOc1ccc(N2CCN(C(=O)C(Cc3ccccc3)n3ncc4c3nc(N)n3nc(-c5ccco5)nc43)CC2)cc1 (centres unmarked) [Compound A19, 2-(5-amino-2-(furan-2-yl)-7H-pyrazolo[4,3-e][1,2,4]triazolo[1,5-c]pyrimidin-7-yl)-1-(4-(4-(2-methoxyethoxy)phenyl)piperazin-1-yl)-3-phenylpropan-1-one]"
4,6.3 nM,"CCCCC(C(=O)N1CCN(c2ccc(OCCOC)cc2)CC1)n1ncc2c1nc(N)n1nc(-c3ccco3)nc21 (centres unmarked) [Compound A10, 2-(5-amino-2-(furan-2-yl)-7H-pyrazolo[4,3-e][1,2,4]triazolo[1,5-c]pyrimidin-7-yl)-1-(4-(4-(2-methoxyethoxy)phenyl)piperazin-1-yl)hexan-1-one]"
5,4.5 nM,"CCCC(C(=O)N1CCN(c2c(F)cc(OCCOC)cc2F)CC1)n1ncc2c1nc(N)n1nc(-c3ccco3)nc21 (centres unmarked) [Compound A25, 2-(5-amino-2-(furan-2-yl)-7H-pyrazolo[4,3-e][1,2,4]triazolo[1,5-c]pyrimidin-7-yl)-1-(4-(2,6-difluoro-4-(2-methoxyethoxy)phenyl)piperazin-1-yl)pentan-1-one]"
6,4.4 nM,"CCCC(C(=O)N1CCN(c2ccc(OCCOC)cc2F)CC1)n1ncc2c1nc(N)n1nc(-c3ccco3)nc21 (centres unmarked) [Compound A24, 2-(5-amino-2-(furan-2-yl)-7H-pyrazolo[4,3-e][1,2,4]triazolo[1,5-c]pyrimidin-7-yl)-1-(4-(2-fluoro-4-(2-methoxyethoxy)phenyl)piperazin-1-yl)pentan-1-one]"
7,4.3 nM,"CCCC(C(=O)N1CCN(c2ccc(F)cc2F)CC1)n1ncc2c1nc(N)n1nc(-c3ccco3)nc21 (centres unmarked) [Compound A20, 2-(5-amino-2-(furan-2-yl)-7H-pyrazolo[4,3-e][1,2,4]triazolo[1,5-c]pyrimidin-7-yl)-1-(4-(2,4-difluorophenyl)piperazin-1-yl)pentan-1-one]"
8,2.9 nM,"COCCOc1ccc(N2CCN(C(=O)C(c3ccccc3)n3ncc4c3nc(N)n3nc(-c5ccco5)nc43)CC2)cc1 (centres unmarked) [Compound A13, 2-(5-amino-2-(furan-2-yl)-7H-pyrazolo[4,3-e][1,2,4]triazolo[1,5-c]pyrimidin-7-yl)-1-(4-(4-(2-methoxyethoxy)phenyl)piperazin-1-yl)-2-phenylethan-1-one]"
9,1.5 nM,"CC(C)CC(C(=O)N1CCN(c2ccc(F)cc2F)CC1)n1ncc2c1nc(N)n1nc(-c3ccco3)nc21 (centres unmarked) [Compound A22, 2-(5-amino-2-(furan-2-yl)-7H-pyrazolo[4,3-e][1,2,4]triazolo[1,5-c]pyrimidin-7-yl)-1-(4-(2,4-difluorophenyl)piperazin-1-yl)-4-methylpentan-1-one]"
10,1.4 nM,"COCCOc1ccc(N2CCN(C(=O)C(CC(C)C)n3ncc4c3nc(N)n3nc(-c5ccco5)nc43)CC2)c(F)c1 (centres unmarked) [Compound A23, 2-(5-amino-2-(furan-2-yl)-7H-pyrazolo[4,3-e][1,2,4]triazolo[1,5-c]pyrimidin-7-yl)-1-(4-(2-fluoro-4-(2-methoxyethoxy)phenyl)piperazin-1-yl)-4-methylpentan-1-one]"
11,1.3 nM,"COCCOc1ccc(N2CCN(C(=O)C(CC(C)C)n3ncc4c3nc(N)n3nc(-c5ccco5)nc43)CC2)cc1 (centres unmarked) [Compound A16, 2-(5-amino-2-(furan-2-yl)-7H-pyrazolo[4,3-e][1,2,4]triazolo[1,5-c]pyrimidin-7-yl)-1-(4-(4-(2-methoxyethoxy)phenyl)piperazin-1-yl)-4-methylpentan-1-one]"
12,1.1 nM,"COCCOCCOc1ccc(N2CCN(C(=O)C(CC(C)C)n3ncc4c3nc(N)n3nc(-c5ccco5)nc43)CC2)cc1 (centres unmarked) [Compound A17, 2-(5-amino-2-(furan-2-yl)-7H-pyrazolo[4,3-e][1,2,4]triazolo[1,5-c]pyrimidin-7-yl)-1-(4-(4-(2-(2-methoxyethoxy)ethoxy)phenyl)piperazin-1-yl)-4-methylpentan-1-one]"
